Measurements from patent US20160074380A1, “Treatment Of Neurodegenerative Diseases With Combination Of Laquinimod And Fingolimod” (TEVA PHARMACEUTICAL INDUSTRIES LTD., priority 2014, published 2016).
Values joined by “and” are separate entries in the source; they are usually repeats but may differ in a detail not shown here. Equal entries are not always repeated.

What was measured:
[1] = tested on: astrocytic and microglial activation and acute axonal damage; conditions: cited from earlier work; for demyelination, astrocytic and microglial activation: Kim, 2011
reactive astrocytes [2] = assay: NO release in conditioned media from reactive astrocytes (ELISA); format: cell-based, mice; conditions: LPS+IFNγ
Description: (§1) Mice mixed glial cells were cultured as described by McCarthy et al., 1980. Primary mice glial cells were prepared from the cortical of newborn Swiss mice (1 day). Briefly, meninges and blood vessels of the mice cortex were removed and placed in ice-cold medium of L15 containing 2% of PS and 1% of BSA. Tissues were dissociated with 0.25% trypsin-EDTA at 37° C. for 10 min. Cells were then submitted to a supplementary incubation of 15 min at 37° C. in presence of deoxyribonuclease I (final concentration of 0.5 mg/mL). Cells were then pelleted (5 min at 1200 rpm) and trypsinization was stopped by adding DMEM supplemented with 10% FCS, 1 mM of Na/pyruvate (PanBiotech, ref: P04-43100, batch: 3470914) and 2% PS. Cells suspension was mechanically dissociated and filtered through 40 μm diameter nylon meshes (BD Falcon, Ref: 352340). The cells were collected by centrifugation at 1200 rpm/min for 10 min, re-suspended in culture medium and then plated in culture flasks (Dutscher, ref: 690175). Cells were seeded at a density of 1.25×10^5 cells/cm2 and cultured in 5% CO2 at 37° C. Medium was changed three times per week.
(§2) Purification of astrocytes cells was done as described by Kim et al., 2006. After 14 days, the flasks were shaken on a rotary shaker at 200 rpm for 3 h. The resulting cell suspension rich in microglia was removed. Cells remaining in the flasks from which microglia had been harvested correspond to astrocytes at a purity of about 90%. Astrocytes were cultured in DMEM supplemented with 10% FCS, 1 mM of Na/pyruvate and 2% at 5% CO2 and 37° C. in flasks of 25 cm2.
(§3) When reaching confluence, primary astroglial cells were first incubated for 2 hours with Fingolimod (1 nM, 10 nM) or Laquinimod (1 nM, 10 nM, 100 nM, 1 μM, 10 μM) alone or in co-incubation or control medium.
(§4) At the end of 2 hours treatment with test compounds, astrocyte culture was activated with serum-free DMEM containing LPS (100 ng/mL; Sigma, Serotype 026:B6, ref: L2654; batch: 123M4052V) and IFNγ (10 ng/mL; Peprotech; ref: 315-05; batch: 061398 L0513) for 6 hours (Kim and Lee, 2013; Shu et al., 2014; Gresa-Arribas et al., 2012) in absence or presence of test compounds.
(§5) To obtain LPS/INFγ free conditioned media (CM), after 6 hours, cells were washed twice with DMEM and medium was replaced with DMEM supplemented with B27 (2%), L-glutamine (2 mM), PS solution (2%). LCM was collected 24 hrs after. For control, cells were incubated with medium not containing LPS/INFγ. […]

reactive astrocytes [3] = assay: TNFα concentration in conditioned media from reactive astrocytes (cytometry); format: cell-based, mice
Description: as §1, §2, §3, §4, §5

reactive astrocytes [4] = assay: IL-12p70 concentration in conditioned media from reactive astrocytes (cytometry); format: cell-based, mice; conditions: LPS+IFNγ
Description: as §1, §2, §3, §4, §5

reactive astrocytes [5] = assay: GM-CSF concentration in conditioned media from reactive astrocytes (cytometry); format: cell-based, mice; conditions: LPS+IFNγ
Description: as §1, §2, §3, §4, §5

reactive astrocytes [6] = assay: CCL7 release in conditioned media from reactive astrocytes (ELISA); format: cell-based, mice; conditions: LPS+IFNγ
Description: as §1, §2, §3, §4, §5

reactive astrocytes [7] = assay: IL-6 concentration in conditioned media from reactive astrocytes (cytometry); format: cell-based, mice; conditions: LPS+IFNγ
Description: as §1, §2, §3, §4, §5

[8] = Mus musculus, Astrocyte, 100 nM
[9] = Mus musculus, Astrocyte, 1 nM, LPS+IFNγ, read-out: % inhibition of TNFα release
[10] = Mus musculus, Astrocyte, 10 nM, LPS+IFNγ, read-out: % inhibition of TNFα release
[11] = Mus musculus, Astrocyte, 1 nM, read-out: % inhibition of IL-12p70 release
[12] = Mus musculus, Astrocyte, 10 nM, read-out: % inhibition of IL-12p70 release
[13] = Mus musculus, Astrocyte, 1 nM, read-out: % inhibition of GM-CSF release
[14] = Mus musculus, Astrocyte, 10 nM, read-out: % inhibition of GM-CSF release
[15] = Mus musculus, Astrocyte, 1 nM, read-out: % inhibition of IL-6 release
[16] = Mus musculus, Astrocyte, 10 nM, read-out: % inhibition of IL-6 release

For `CCN(C(=O)c1c(O)c2c(Cl)cccc2n(C)c1=O)c1ccccc1` [Laquinimod], the acute axonal damage ([1]; Brück, 2012) is listed as “reduces it completely”, the “demyelination, astrocytic and microglial activation” value [1] is listed as “partial response” and the NO content (reactive astrocytes [2]; 1 nM) is listed as 26.44 pg/mL and 26.447 pg/mL. For the same compound, the NO content (reactive astrocytes [2]; 10 nM) was 21.1 pg/mL and 21.093 pg/mL, the NO content (reactive astrocytes [2]; 100 nM) was 17.98 pg/mL and 17.983 pg/mL and the NO content (reactive astrocytes [2]; 1 μM) was 16.11 pg/mL and 16.111 pg/mL. The inhibition at 0.001 µM (reactive astrocytes [2]; Mus musculus, Astrocyte, 1 nM) was 39%, the inhibition at 0.01 µM (reactive astrocytes [2]; Mus musculus, Astrocyte, 10 nM) was 51.3% and the inhibition at 0.1 µM (reactive astrocytes [2]; [8]) was 58.5%. It also gave an inhibition at 1 µM (reactive astrocytes [2]; Mus musculus, Astrocyte, 1 μM) of 62.8%, a TNFa content (reactive astrocytes [3]; 1 nM, LPS+IFNγ) of 3257.64 pg/mL and a TNFa content (reactive astrocytes [3]; 10 nM, LPS+IFNγ) of 2440.81 pg/mL. The TNFa content (reactive astrocytes [3]; 100 nM, LPS+IFNγ) was 2464 pg/mL, the TNFa content (reactive astrocytes [3]; 1 μM, LPS+IFNγ) was 2769 pg/mL and 2769.46 pg/mL and the inhibition at 0.001 µM (reactive astrocytes [3]; [9]) was 0.7%. The inhibition at 0.01 µM (reactive astrocytes [3]; [10]) was 25.6%, the inhibition at 0.1 µM (reactive astrocytes [3]; Mus musculus, Astrocyte, 100 nM, LPS+IFNγ, read-out: % inhibition of TNFα release) was 24.9% and the inhibition at 1 µM (reactive astrocytes [3]; Mus musculus, Astrocyte, 1 μM, LPS+IFNγ, read-out: % inhibition of TNFα release) was 15.6%. For the same compound, the IL-12p70 content (reactive astrocytes [4]; 1 nM) was 6.53 pg/mL, the IL-12p70 content (reactive astrocytes [4]; 10 nM) was 6.29 pg/mL and the IL-12p70 content (reactive astrocytes [4]; 100 nM) was 3.84 pg/mL. For the same compound, the IL-12p70 content (reactive astrocytes [4]; 1 μM) was 2.55 pg/mL, the inhibition at 0.001 µM (reactive astrocytes [4]; [11]) was 34.3% and the inhibition at 0.01 µM (reactive astrocytes [4]; [12]) was 36.7%. For the same compound, the inhibition at 0.1 µM (reactive astrocytes [4]; Mus musculus, Astrocyte, 100 nM, read-out: % inhibition of IL-12p70 release) was 61.4%, the inhibition at 1 µM (reactive astrocytes [4]; Mus musculus, Astrocyte, 1 μM, read-out: % inhibition of IL-12p70 release) was 74.3% and the GM-CSF content (reactive astrocytes [5]; 1 nM) was 207.71 pg/mL. The GM-CSF content (reactive astrocytes [5]; 10 nM) was 209.51 pg/mL, the GM-CSF content (reactive astrocytes [5]; 100 nM) was 179.39 pg/mL and the GM-CSF content (reactive astrocytes [5]; 1 μM) was 154 pg/mL and 154.26 pg/mL. For the same compound, the inhibition at 0.001 µM (reactive astrocytes [5]; [13]) was 14.5%, the inhibition at 0.01 µM (reactive astrocytes [5]; [14]) was 13.7% and the inhibition at 0.1 µM (reactive astrocytes [5]; Mus musculus, Astrocyte, 100 nM, read-out: % inhibition of GM-CSF release) was 26.1%. For the same compound, the inhibition at 1 µM (reactive astrocytes [5]; Mus musculus, Astrocyte, 1 μM, read-out: % inhibition of GM-CSF release) was 36.5%, the CCL-7 content (reactive astrocytes [6]; 1 nM) was 26.447 pg/mL and the CCL-7 content (reactive astrocytes [6]; 10 nM) was 21.093 pg/mL. It also gave an inhibition at 0.001 µM (reactive astrocytes [6]; Mus musculus, Astrocyte, 1 nM) of 39%, an inhibition at 0.01 µM (reactive astrocytes [6]; Mus musculus, Astrocyte, 10 nM) of 51.3% and an inhibition at 0.1 µM (reactive astrocytes [6]; [8]) of 58.5%. For the same compound, the inhibition at 1 µM (reactive astrocytes [6]; Mus musculus, Astrocyte, 1 μM) was 62.8%, the IL-6 content (reactive astrocytes [7]; 1 nM) was 6198 pg/mL and the IL-6 content (reactive astrocytes [7]; 10 nM) was 6315 pg/mL. For the same compound, the IL-6 content (reactive astrocytes [7]; 1 μM) was 2640 pg/mL, the inhibition at 0.001 µM (reactive astrocytes [7]; [15]) was 12.3% and the inhibition at 0.01 µM (reactive astrocytes [7]; [16]) was 10.6%. It also gave an inhibition at 1 µM (reactive astrocytes [7]; Mus musculus, Astrocyte, 1 μM, read-out: % inhibition of IL-6 release) of 62.6%.

In the case of `CCCCCCCCc1ccc(CCC(N)(CO)CO)cc1` [Fingolimod], the “demyelination, astrocytic and microglial activation” value [1] is listed as “partial response”, the NO content (reactive astrocytes [2]; 1 nM) is listed as 24.39 pg/mL and 24.396 pg/mL and the NO content (reactive astrocytes [2]; 10 nM) is listed as 17.37 pg/mL and 17.371 pg/mL. The inhibition at 0.001 µM (reactive astrocytes [2]; Mus musculus, Astrocyte, 1 nM) was 43.7%, the inhibition at 0.01 µM (reactive astrocytes [2]; Mus musculus, Astrocyte, 10 nM) was 59.9% and the “effect on TNFα release” value (reactive astrocytes [3]; 1 nM and 10 nM) was “didn't show any significant effect”. It also gave a TNFa content (reactive astrocytes [3]; 1 nM, LPS+IFNγ) of 3170.03 pg/mL, a TNFa content (reactive astrocytes [3]; 10 nM, LPS+IFNγ) of 3053.66 pg/mL and an inhibition at 0.001 µM (reactive astrocytes [3]; [9]) of 3.4%. It also gave an inhibition at 0.01 µM (reactive astrocytes [3]; [10]) of 6.9%, an IL-12p70 content (reactive astrocytes [4]; 1 nM) of 6.15 pg/mL and an IL-12p70 content (reactive astrocytes [4]; 10 nM) of 4.25 pg/mL. It also gave an inhibition at 0.001 µM (reactive astrocytes [4]; [11]) of 38.1%, an inhibition at 0.01 µM (reactive astrocytes [4]; [12]) of 57.2% and a GM-CSF content (reactive astrocytes [5]; 1 nM) of 204.09 pg/mL. It also gave a GM-CSF content (reactive astrocytes [5]; 10 nM) of 147.56 pg/mL, a GM-CSF release (reactive astrocytes [5]; 10 nM) of 148 pg/mL and an inhibition at 0.001 µM (reactive astrocytes [5]; [13]) of 16%. The inhibition at 0.01 µM (reactive astrocytes [5]; [14]) was 39.2%, the CCL-7 content (reactive astrocytes [6]; 1 nM) was 24.396 pg/mL and the inhibition at 0.001 µM (reactive astrocytes [6]; Mus musculus, Astrocyte, 1 nM) was 43.7%. It also gave an inhibition at 0.01 µM (reactive astrocytes [6]; Mus musculus, Astrocyte, 10 nM) of 59.9%, an IL-6 content (reactive astrocytes [7]; 1 nM) of 5421 pg/mL and an IL-6 content (reactive astrocytes [7]; 10 nM) of 4744 pg/mL. For the same compound, the inhibition at 0.001 µM (reactive astrocytes [7]; [15]) was 23.3% and the inhibition at 0.01 µM (reactive astrocytes [7]; [16]) was 32.9%.
